From US6815440B2, “Cyclic and heterocyclic N-substituted α-iminohydroxamic and -carboxylic acids” (Aventis Pharma Deutschland GmbH, priority 1995, dated 2004)
Counter-ions that a name gives are not always drawn.

Columns and labels:
Type in all cases: biochemical
[1] = biological target: T1, catalytic domain of stromelysine-1 (Homo sapiens, UniProt P08254); assay: Proteoglycan degradation assay (bovine aggrecan, ELISA with antibody 5-D-4); details: bovine nasal proteoglycane, 60 ng stromelysine-1 catalytic domain, MES pH 6.0, RT 3 h
T1 construct: enzymatic activity of the catalytic domains of human stomelysine and of neutrophil collagenase; made in house
T1 sequence (P08254 100-272 limits assumed): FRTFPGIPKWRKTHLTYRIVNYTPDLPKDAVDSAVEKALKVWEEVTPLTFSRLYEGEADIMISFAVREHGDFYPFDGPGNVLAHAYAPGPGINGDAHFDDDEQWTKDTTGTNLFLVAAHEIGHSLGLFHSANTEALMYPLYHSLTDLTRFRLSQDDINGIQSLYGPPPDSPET
Protocol: In the proteoglycan degradation assay, the extent of the degradation of native bovine aggrecan, the most important proteoglycan of the cartilage, is measured. The released proteoglycan fragments are determined using the monoclonal antibody 5-D-4 which recognizes the keratan sulfate side-chains which are located at the carboxy terminal of the G2 domain of aggrecan. Thus, the assay detects primarily pathologically important degradations which take place in the interglobular domain of aggrecan.
After addition of compounds of the formula I and the enzyme in the form of the catalytic domain of stromelysine-1, the amount of hyaluronic acid-bound aggrecan which remains after degradation is measured. The more aggrecan is detected, the lower the residual activity of the enzyme.
Description of the Test Protocol:
Wells of 96 well microtiter plates (Nunc, Maxisorp) each containing 100 μl of hyaluronic acid solution (25 μg/ml of hyaluronic acid (Sigma) in PBS) are incubated at room temperature (RT) for 12 h. The hyaluronic acid solution is removed by suction and the remaining free protein binding sites of the wells are saturated with in each case […] of a 5% strength solution of bovine serum albumin (BSA), 0.05% of Tween20 in PBS at RT for 1 h. The wells are subsequently covered with proteoglycane by incubating the wells with 100 μl each of a solution of bovine nasal proteoglycane (ICI) (200 μg/ml in 1×PBS, 5 mg/ml of BSA, 0.05% of Tween20) at RT for 1 h. The wells are washed twice with 1×PBS, 0.1% Tween20 to remove the free proteoglycanes. Subsequently, for the actual assay, 60 ng of purified catalytic domain of Stromelysine-1 (for the recombinant expression and purification, see Ye et al. (1992)) plus corresponding concentrations of the inhibitor to be tested in 100 μl of degradation buffer (100 mM MES pH 6.0, 100 mM NaCl, 10 mM CaCl2, 0.05% of Brij) are pipetted into the wells and incubated at RT for 3 h. The wells are washed twice with 1×PBS, 0.1% of Tween20 and then incubated with 100 μl of a solution of the detection antibody (monoclonal antibody done 5-D-4 (ICI), immunoreactive with the keratan sulfate side-chains of the proteoglycane, dilution 1:1000 in 1×PBS, 5 mg/ml BSA, 0.05% Tween20). The wells are washed twice with 1×PBS, 0.1% of Tween20, after which the immune reaction of the bound detection antibodies is carried out using 100 μl per well of an antibody solution for detection (goat anti Maus IgG, labeled with peroxidase (Dianova), diluted 1:1000 in 1×PBS, 5 mg/ml of BSA, 0.05% of Tween20) at RT for 1 h. The wells are again washed twice (as above), and the color reaction is then initiated using 100 μl each of 2 mg/ml of ABTS, activated with H2O2. The reaction products are measured in an ELISA reader at a wavelength of […].

[2] = biological target: T2, catalytic domain of neutrophil collagenase (Homo sapiens, UniProt P22894); assay: Enzyme inhibition, catalytic domain of neutrophil collagenase (fluorogenic substrate); details: hydroxamic acids up to and including Example 33; tris/HCl buffer pH=7.5; read-out: Neutrophil collagenase IC 50
T2 construct: enzymatic activity of the catalytic domains of human stomelysine and of neutrophil collagenase; made in house
T2 sequence (P22894 100-262 limits assumed): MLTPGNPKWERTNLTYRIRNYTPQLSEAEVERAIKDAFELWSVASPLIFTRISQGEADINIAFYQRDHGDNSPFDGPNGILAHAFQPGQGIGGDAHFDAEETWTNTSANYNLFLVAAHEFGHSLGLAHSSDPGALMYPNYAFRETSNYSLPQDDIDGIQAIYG
Protocol: (§1) Preparation and determination of the enzymatic activity of the catalytic domains of human stomelysine and of neutrophil collagenase.
(§2) The two enzymes were prepared according to Ye et al., (Biochemistry 31 (1992) 11231-5). To measure the enzyme activity or enzyme inhibitor action, 70 μl of buffer solution and 10 μl of enzyme solution are incubated for 15 minutes with 10 μl of a 10% strength (v/v) aqueous dimethyl sulfoxide solution, which optionally contains the enzyme inhibitor. After addition of 10 μl of a 10% strength (v/v) aqueous dimethyl sulfoxide solution which contains 1 mmol/l of the substrate, the enzyme reaction is monitored by fluorescence spectroscopy (328 nm (ex)/393 nm(em)). The enzyme activity is shown as extinction increase/minute. […] The buffer solution contains 0.05% of Brij (Sigma, Deisenhofen, Germany) and also 0.1 mol/l of tris/HCl, 0.1 mol/l of NaCl, 0.01 mol/l of CaCl2 (pH=7.5) for the determination of the hydroxamic acids up to and including Example 33, or, for the determination of the carboxylic acids from Example 34, 0.1 mol/l of piperazine-N,N′-bis[2-ethanesulfonic acid] pH=6.5.
(§3) The enzyme solution contains 5 μg/ml of one of the enzyme domains prepared according to Ye et al. The substrate solution contains 1 mmol/l of the fluorogenic substrate (7-methoxycoumarin-4-yl)acetyl-Pro-Leu-Gly-Leu-3-(2′,4′-dinitrophenyl)-L-2,3-diaminopropionyl-Ala-Arg-NH2 (Bachem, Heidelberg, Germany).

[3] = biological target: T3, catalytic domain of human stromelysine (Homo sapiens, UniProt P08254); assay: Enzyme inhibition, catalytic domain of human stromelysine (fluorogenic substrate); details: hydroxamic acids up to and including Example 33; tris/HCl buffer pH=7.5; read-out: Stromelysine IC 50
T3 construct: enzymatic activity of the catalytic domains of human stomelysine and of neutrophil collagenase; made in house
T3 sequence (P08254 100-272 limits assumed): as the sequence (P08254 100-272 limits assumed) above
Protocol: as §1, §2, §3

| IC50 [1] [nM] | IC50 [2] [nM] | IC50 [3] [nM] | Compound |
| --- | --- | --- | --- |
| 85 | 0.2 | 20 | O=C(NO)C1Cc2ccccc2CN1S(=O)(=O)c1ccc(-c2ccccc2)cc1 (stereo not drawn) [Example 2] |
| 1600 | 800 | 400 | O=C(Nc1ccc(S(=O)(=O)N2Cc3ccccc3C[C@@H]2C(=O)NO)cc1)OCc1ccccc1 [Example 9] |
| 51 | 2 | 20 | O=C(NO)[C@H]1Cc2ccccc2CN1S(=O)(=O)c1ccc(Oc2ccccc2)cc1 [Example 13c, R-2-(4-phenoxybenzenesulfonyl)-1,2,3,4-tetrahydroisoquinoline-3-hydroxamic acid] |
| 6.7 | 2 | 30 | CN(C)c1ccc(Oc2ccc(S(=O)(=O)N3Cc4ccccc4C[C@@H]3C(=O)NO)cc2)cc1 [Example 14] |
| 41 | 3 | 30 | O=C(c1ccccc1)c1ccc(S(=O)(=O)N2Cc3ccccc3C[C@@H]2C(=O)NO)cc1 [Example 18] |
| 65 | 2 | 20 | CCOC(=O)Oc1ccc2c(c1)CN(S(=O)(=O)c1ccc(OC)cc1)[C@@H](C(=O)NO)C2 [Example 21] |
| 25 | 4 | 20 | COc1ccc(S(=O)(=O)N2Cc3nc[nH]c3C[C@@H]2C(=O)NO)cc1 [Example 29, R-5-(4-methoxybenzenesulfonyl)-4,5,6,7-tetrahydro-1H-imidazo-(4,5-c)-pyridine-6-hydroxamic acid hydrochloride] |
